Reference: patent publication US10227344B2, “CK2 inhibitors, compositions and methods thereof” (Polaris Pharmaceuticals, Inc., priority 2016, dated 2019)

Legend:
Assay type in all cases: cell-based
Panc-1 = assay: Cancer cell panel, cell viability (resazurin): Pancreatic, Panc-1; details: Panc-1 (Pancreatic), 72 hours; labelled drug combined with Example 3
HT29 = assay: Cancer cell panel, cell viability (resazurin): Colon, HT29; details: 72 hours, labelled drug combined with Example 3
H23 = assay: Cancer cell panel, cell viability (resazurin): NSCLC, H23; details: 72 hours, labelled drug combined with Example 3
Caki-2 = assay: Cancer cell panel, cell viability (resazurin): Renal, Caki-2; details: Caki-2 (Renal), 72 hours; labelled drug combined with Example 3
Protocol: (§1) Cells were plated in 96-well plates and treated for 72 hours with a serially diluted CK2 inhibitor or anti-cancer drug or their combination. The suspension cell lines were treated right after plating, while the adherent cells were allowed to attach overnight prior to the start of the treatment.
(§2) Cell viability was determined by adding resazurin to cell cultures and measuring fluorescence with a plate reader. Relative cell viability was calculated by dividing the cell viability signal from a test sample by that of a non-treated control. […] Bliss Independence and Highest Single Agent models were used to determine if there is synergy, additivity or antagonism between the CK2 inhibitor and an anti-cancer drug.

Mia-Paca-2 = assay: Cancer cell panel, cell viability (resazurin): Pancreatic, Mia-Paca-2; details: Mia-Paca-2 (Pancreatic), 72 hours; labelled drug combined with Example 3
Protocol: as §1, §2

Caki-1 = assay: Cancer cell panel, cell viability (resazurin): Renal, Caki-1; details: Caki-1 (Renal), 72 hours; labelled drug combined with Example 3
Protocol: as §1, §2

SK-MEL-3 = assay: Cancer cell panel, cell viability (resazurin): Melanoma, SK-MEL-3; details: SK-MEL-3 (Melanoma), 72 hours; labelled drug combined with Example 3
H460 = assay: Cancer cell panel, cell viability (resazurin): NSCLC, H460; details: 72 hours, labelled drug combined with Example 3
RPMI8226 = assay: Cancer cell panel, cell viability (resazurin): multiple myeloma, RPMI8226; details: 72 hours, labelled drug combined with Example 3
WM-115 = assay: Cancer cell panel, cell viability (resazurin): Melanoma, WM-115; details: WM-115 (Melanoma), 72 hours; labelled drug combined with Example 3
H1975 = assay: Cancer cell panel, cell viability (resazurin): NSCLC, H1975; details: 72 hours, labelled drug combined with Example 3
DLD-1 = assay: Cancer cell panel, cell viability (resazurin): Colon, DLD-1; details: DLD-1 (Colon), 72 hours; labelled drug combined with Example 3
BT-20 = assay: Cancer cell panel, cell viability (resazurin): Breast, BT-20; details: BT-20 (Breast), 72 hours; labelled drug combined with Example 3
HL60 = assay: Cancer cell panel, cell viability (resazurin): Leukemia, HL60; details: 72 hours, labelled drug combined with Example 3
Protocol: as §1, §2

U87MG = assay: Cancer cell panel, cell viability (resazurin): Glioblastoma, U87MG; details: 72 hours, labelled drug combined with Example 3
HCT116 = assay: Cancer cell panel, cell viability (resazurin): Colon, HCT116; details: 72 hours, labelled drug combined with Example 3
SK-MEL-24 = assay: Cancer cell panel, cell viability (resazurin): Melanoma, SK-MEL-24; details: SK-MEL-24 (Melanoma), 72 hours; labelled drug combined with Example 3
Protocol: as §1, §2

U266 = assay: Cancer cell panel, cell viability (resazurin): multiple myeloma, U266; details: 72 hours, labelled drug combined with Example 3
Protocol: as §1, §2

786-O = assay: Cancer cell panel, cell viability (resazurin): Renal, 786-O; details: 786-O (Renal), 72 hours; labelled drug combined with Example 3
MeWO = assay: Cancer cell panel, cell viability (resazurin): Melanoma, MeWO; details: 72 hours, labelled drug combined with Example 3
Protocol: as §1, §2

Colo205 = assay: Cancer cell panel, cell viability (resazurin): Colon, Colo205; details: 72 hours, labelled drug combined with Example 3
A549 = assay: Cancer cell panel, cell viability (resazurin): NSCLC, A549; details: 72 hours, labelled drug combined with Example 3
MOLT4 = assay: Cancer cell panel, cell viability (resazurin): Leukemia, MOLT4; details: 72 hours, labelled drug combined with Example 3
Protocol: as §1, §2

LoVo = assay: Cancer cell panel, cell viability (resazurin): Colon, LoVo; details: 72 hours, labelled drug combined with Example 3
H1299 = assay: Cancer cell panel, cell viability (resazurin): NSCLC, H1299; details: 72 hours, labelled drug combined with Example 3
ZR-75-1 = assay: Cancer cell panel, cell viability (resazurin): Breast, ZR-75-1; details: ZR-75-1 (Breast), 72 hours; labelled drug combined with Example 3
BxPC3 = assay: Cancer cell panel, cell viability (resazurin): Pancreatic, BxPC3; details: 72 hours, labelled drug combined with Example 3
K562 = assay: Cancer cell panel, cell viability (resazurin): Leukemia, K562; details: 72 hours, labelled drug combined with Example 3
Protocol: as §1, §2

A2780 = assay: Cancer cell panel, cell viability (resazurin): Ovarian, A2780; details: 72 hours, labelled drug combined with Example 3
Caov-3 = assay: Cancer cell panel, cell viability (resazurin): Ovarian, Caov-3; details: Caov-3 (Ovarian), 72 hours; labelled drug combined with Example 3
Protocol: as §1, §2

A375 = assay: Cancer cell panel, cell viability (resazurin): Melanoma, A375; details: 72 hours, labelled drug combined with Example 3
OVCAR-3 = assay: Cancer cell panel, cell viability (resazurin): Ovarian, OVCAR-3; details: OVCAR-3 (Ovarian), 72 hours; labelled drug combined with Example 3
Protocol: as §1, §2

MDA-MB-157 = assay: Cancer cell panel, cell viability (resazurin): Breast, MDA-MB-157; details: MDA-MB-157 (Breast), 72 hours; labelled drug combined with Example 3
EOL-1 = assay: Cancer cell panel, cell viability (resazurin): Leukemia, EOL-1; details: EOL-1 (Leukemia), 72 hours; labelled drug combined with Example 3
Protocol: as §1, §2

MDA-MB-231 = assay: Cancer cell panel, cell viability (resazurin): Breast, MDA-MB-231; details: MDA-MB-231 (Breast), 72 hours; labelled drug combined with Example 3

CC(=O)Nc1cccc(-n2c(=O)n(C3CC3)c(=O)c3c(Nc4ccc(I)cc4F)n(C)c(=O)c(C)c32)c1 [Trametinib, trametinib]
synergy, additivity or antagonism of the combination of Example 3 with the anti-cancer drug (Panc-1): + (Additive relative to each agent alone (CI = 0.9-1 by Bliss Independence Model and <0.9 by Highest Single Agent Model))
synergy, additivity or antagonism of the combination of Example 3 with the anti-cancer drug (HT29): + (Additive relative to each agent alone (CI = 0.9-1 by Bliss Independence Model and <0.9 by Highest Single Agent Model))
synergy, additivity or antagonism of the combination of Example 3 with the anti-cancer drug (H23): + + + (Synergy relative to each agent alone (CI = 0.4-0.74 by Bliss Independence Model))
synergy, additivity or antagonism of the combination of Example 3 with the anti-cancer drug (Caki-2): − − − (Strongly antagonistic relative to each agent alone (CI > 1.49 by Highest Single Agent Model))
synergy, additivity or antagonism of the combination of Example 3 with the anti-cancer drug (Mia-Paca-2): + (Additive relative to each agent alone (CI = 0.9-1 by Bliss Independence Model and <0.9 by Highest Single Agent Model))
synergy, additivity or antagonism of the combination of Example 3 with the anti-cancer drug (Caki-1): + (Additive relative to each agent alone (CI = 0.9-1 by Bliss Independence Model and <0.9 by Highest Single Agent Model))
synergy, additivity or antagonism of the combination of Example 3 with the anti-cancer drug (SK-MEL-3): + (Additive relative to each agent alone (CI = 0.9-1 by Bliss Independence Model and <0.9 by Highest Single Agent Model))
synergy, additivity or antagonism of the combination of Example 3 with the anti-cancer drug (H460): + + + (Synergy relative to each agent alone (CI = 0.4-0.74 by Bliss Independence Model))
synergy, additivity or antagonism of the combination of Example 3 with the anti-cancer drug (RPMI8226): + + (Slight synergy relative to each agent alone (CI = 0.75-0.9 by Bliss Independence Model))
synergy, additivity or antagonism of the combination of Example 3 with the anti-cancer drug (WM-115): + + (Slight synergy relative to each agent alone (CI = 0.75-0.9 by Bliss Independence Model))
synergy, additivity or antagonism of the combination of Example 3 with the anti-cancer drug (H1975): + + + (Synergy relative to each agent alone (CI = 0.4-0.74 by Bliss Independence Model))
synergy, additivity or antagonism of the combination of Example 3 with the anti-cancer drug (DLD-1): + + + (Synergy relative to each agent alone (CI = 0.4-0.74 by Bliss Independence Model))
synergy, additivity or antagonism of the combination of Example 3 with the anti-cancer drug (BT-20): + + + (Synergy relative to each agent alone (CI = 0.4-0.74 by Bliss Independence Model))
synergy, additivity or antagonism of the combination of Example 3 with the anti-cancer drug (HL60): + + (Slight synergy relative to each agent alone (CI = 0.75-0.9 by Bliss Independence Model))
synergy, additivity or antagonism of the combination of Example 3 with the anti-cancer drug (U87MG): + + (Slight synergy relative to each agent alone (CI = 0.75-0.9 by Bliss Independence Model))
synergy, additivity or antagonism of the combination of Example 3 with the anti-cancer drug (HCT116): + + + (Synergy relative to each agent alone (CI = 0.4-0.74 by Bliss Independence Model))
synergy, additivity or antagonism of the combination of Example 3 with the anti-cancer drug (SK-MEL-24): + + (Slight synergy relative to each agent alone (CI = 0.75-0.9 by Bliss Independence Model))
synergy, additivity or antagonism of the combination of Example 3 with the anti-cancer drug (U266): + + (Slight synergy relative to each agent alone (CI = 0.75-0.9 by Bliss Independence Model))
synergy, additivity or antagonism of the combination of Example 3 with the anti-cancer drug (786-O): + + + (Synergy relative to each agent alone (CI = 0.4-0.74 by Bliss Independence Model))
synergy, additivity or antagonism of the combination of Example 3 with the anti-cancer drug (MeWO): + + (Slight synergy relative to each agent alone (CI = 0.75-0.9 by Bliss Independence Model))
synergy, additivity or antagonism of the combination of Example 3 with the anti-cancer drug (Colo205): + + + (Synergy relative to each agent alone (CI = 0.4-0.74 by Bliss Independence Model))
synergy, additivity or antagonism of the combination of Example 3 with the anti-cancer drug (A549): + + + + (Strong synergy relative to each agent alone (CI < 0.4 by Bliss Independence Model))
synergy, additivity or antagonism of the combination of Example 3 with the anti-cancer drug (MOLT4): + (Additive relative to each agent alone (CI = 0.9-1 by Bliss Independence Model and <0.9 by Highest Single Agent Model))
synergy, additivity or antagonism of the combination of Example 3 with the anti-cancer drug (LoVo): + + (Slight synergy relative to each agent alone (CI = 0.75-0.9 by Bliss Independence Model))
synergy, additivity or antagonism of the combination of Example 3 with the anti-cancer drug (H1299): + (Additive relative to each agent alone (CI = 0.9-1 by Bliss Independence Model and <0.9 by Highest Single Agent Model))
synergy, additivity or antagonism of the combination of Example 3 with the anti-cancer drug (ZR-75-1): + + (Slight synergy relative to each agent alone (CI = 0.75-0.9 by Bliss Independence Model))
synergy, additivity or antagonism of the combination of Example 3 with the anti-cancer drug (BxPC3): + + + + (Strong synergy relative to each agent alone (CI < 0.4 by Bliss Independence Model))
synergy, additivity or antagonism of the combination of Example 3 with the anti-cancer drug (K562): + (Additive relative to each agent alone (CI = 0.9-1 by Bliss Independence Model and <0.9 by Highest Single Agent Model))
synergy, additivity or antagonism of the combination of Example 3 with the anti-cancer drug (A2780): + + (Slight synergy relative to each agent alone (CI = 0.75-0.9 by Bliss Independence Model))
synergy, additivity or antagonism of the combination of Example 3 with the anti-cancer drug (Caov-3): + + (Slight synergy relative to each agent alone (CI = 0.75-0.9 by Bliss Independence Model))
synergy, additivity or antagonism of the combination of Example 3 with the anti-cancer drug (A375): + + (Slight synergy relative to each agent alone (CI = 0.75-0.9 by Bliss Independence Model))
synergy, additivity or antagonism of the combination of Example 3 with the anti-cancer drug (OVCAR-3): + + (Slight synergy relative to each agent alone (CI = 0.75-0.9 by Bliss Independence Model))
synergy, additivity or antagonism of the combination of Example 3 with the anti-cancer drug (MDA-MB-157): + + (Slight synergy relative to each agent alone (CI = 0.75-0.9 by Bliss Independence Model))
synergy, additivity or antagonism of the combination of Example 3 with the anti-cancer drug (EOL-1): + + (Slight synergy relative to each agent alone (CI = 0.75-0.9 by Bliss Independence Model))
synergy, additivity or antagonism of the combination of Example 3 with the anti-cancer drug (MDA-MB-231): + + (Slight synergy relative to each agent alone (CI = 0.75-0.9 by Bliss Independence Model))
